Results from patent publication US5466717A, “Halogenated 4'-methoxyacetophenones as microbicides and preservatives” (Buckman Laboratories Int'l, Inc., priority 1993, dated 1995).
Converted amounts (≈) assume the structure as drawn. Read-outs that look alike come from different tables or passages of the source.

Key:
Type in all cases: cell-based
Enterobacter aerogenes = test: Pulp substrate method, percent kill of E. aerogenes (Table 2); settings: for killing at 1 ppm / killing at 2 ppm / killing at 4 ppm / killing at 8 ppm / killing at 10 ppm / killing at 15 ppm / killing at 20 ppm / killing at 25 ppm: Klebsiella aerogenes, pulp substrate, read-out: % Kill of E. aerugenes; for bactericidal activity (in words): at both neutral and alkaline pH, conclusion from Table 2 (E. aerogenes and P. aeruginosa)
Description: (§1) Compounds 1 and 2 were tested by the pulp substrate method described in detail in U.S. Pat. No. 2,881,070, column 5, line 12--column 6, line 53. The disclosure of U.S. Pat. No. 2,881,070 is specifically incorporated here by reference. […] The tests utilized Enterobacter aerogenes and Pseudomonas aeruginosa in pulp substrates that had been buffered at pH 7.0 and 8.0.

Chlorella pyrenoidosa = test: Growth inhibition of algae in Difco Algae Broth (Table 6); settings: Auxenochlorella pyrenoidosa, 672 h, read-out: Minimum inhibitory concentration
Description: The growth-inhibiting activity of the method of the invention against the algae Chlorella pyrenoidosa was evaluated at two different pH levels in Difco Algae Broth. The content of the broth was as follows: Forty-gram portions of the algae medium were added to 250 mL Erlenmeyer flasks fitted with loose metal caps and were then sterilized. Each of the following substances was then added to the flasks in the order listed: (1) Sterile algae medium as required to bring the total weight of the contents of each flask to 50 grams, after allowing for all subsequent additions specified below. (2) A solution of the toxicant or of a control agent to be evaluated in each test, to give the concentration desired in parts per million by weight. (3) Chlorella pyrenoidosa, in amounts sufficient to give excellent growth in the controls after 14 days. This was achieved by adding 1 milliliter of a 14 day old culture having luxuriant growth. The Chlorella pyrenoidosa culture was obtained from American Type Culture Collection No. 7516. Control experiments were carried out where no toxicants were employed. In the algicidal tests the growth of algae in the nutrient is lush green and can be seen with the naked eye. Since the minimum inhibitory concentrations of the compounds in this example are those which result in complete inhibition, evaluation of the test results is not subjective. After the inoculum of the test algae was added, the flasks were incubated at a temperature of 28°±2° C. under fluorescent illumination of 250 foot-candle intensity (8 hours light, 16 hours darkness) for a period adequate for growth in the controls (those portions of medium which contained no toxicant). Observations of growth were made at 7-day intervals. Minimum inhibitory concentrations are those that prevented complete growth after 28 days.

Pseudomonas aeruginosa = test: Pulp substrate method, percent kill of P. aeruginosa (Table 2)
Description: as §1

[1] = system: Desulfovibrio desulfuricans; test: Effectiveness against sulfate reducing bacterium, Method API Rp 38 (Table 7); design: key: 4: excellent; 3: good; 2: poor; 1: very poor, scant, questionable; 0: no growth; settings: pH 7.0, duplicates
Description: The effectiveness of compounds 1 and 2 against Desulfovibrio desulfuricans,a sulfate reducing bacterium, was determined using the method recommended by the American Petroleum Institute (Method API Rp 38). The composition of the sulfate-reducer medium for the bacteriostatic test is as follows: The ingredients are dissolved by gentle heating with constant stirring. […] If necessary, the medium is then filtered through Whatman No. 1 or No. 2 filter paper. Following filtration, the medium is autoclaved at 15 lb steam pressure for […]. After autoclaving, the medium is allowed to cool slightly and the iron salt, Fe(SO4)2 (NH4)2.6H2 O, is added. The pH is then checked and readjusted if necessary. The medium is now cooled to room temperature as rapidly as possible, without agitation. After cooling, the medium is inoculated from the third successive 24-hour transfer of an actively growing culture (a liquid culture which turns black within 24 hours after inoculation) of sulfate-reducing bacteria. Ten milliliters of inoculum are added to each liter of medium. From stock solutions of the chemical to be screened, sufficient amounts of the compounds are added to 1- or 2-oz clear bottles so that the desired concentrations of chemicals are present when the containers are filled. The amount of stock solution added cannot exceed 10 percent of the volume of the test bottle. After addition of the chemical, the bottles are completely filled with the inoculated medium. The bottles are then capped with plastic caps containing cork and aluminum foil or Teflon liners and are incubated at 30°±2° C. All work is done in duplicate with at least three controls for each series. The controls consist of bottles filled with inoculated medium only. Growth of sulfate-reducing bacteria in the bottles is indicated by an intense blackening of the medium, whereas containers having sufficient chemical to inhibit growth will remain clear. Bottles with no sulfate-reducing bacteria growth are observed for a period of 28 days after the controls have blackened. The results were recorded using a +/0 scale where "+" indicates growth and "0" indicates no growth.

[2] = pH 7.0, read-out: % Kill of P. aeroginosa
[3] = pH 8.0, read-out: % Kill of P. aeroginosa

| SMILES | killing at 1 ppm (Enterobacter aerogenes; pH 7.0) [%] | killing at 1 ppm (Enterobacter aerogenes; pH 8.0) [%] | killing at 2 ppm (Enterobacter aerogenes; pH 7.0) [%] | killing at 2 ppm (Enterobacter aerogenes; pH 8.0) [%] | killing at 4 ppm (Enterobacter aerogenes; pH 7.0) [%] | killing at 4 ppm (Enterobacter aerogenes; pH 8.0) [%] | killing at 8 ppm (Enterobacter aerogenes; pH 7.0) [%] | killing at 8 ppm (Enterobacter aerogenes; pH 8.0) [%] | killing at 10 ppm (Enterobacter aerogenes; pH 7.0) [%] | killing at 10 ppm (Enterobacter aerogenes; pH 8.0) [%] | killing at 15 ppm (Enterobacter aerogenes; pH 7.0) [%] | killing at 15 ppm (Enterobacter aerogenes; pH 8.0) [%] | killing at 20 ppm (Enterobacter aerogenes; pH 7.0) [%] | killing at 20 ppm (Enterobacter aerogenes; pH 8.0) [%] | killing at 25 ppm (Enterobacter aerogenes; pH 7.0) [%] | killing at 25 ppm (Enterobacter aerogenes; pH 8.0) [%] | bactericidal activity (in words) (Enterobacter aerogenes) | MIC (Chlorella pyrenoidosa; pH 7.0, 28 days) [µg/mL] | MIC (Chlorella pyrenoidosa; pH 8.0, 28 days) [µg/mL] | killing at 1 ppm (Pseudomonas aeruginosa; [2]) [%] | other results |
| --- | --- | --- | --- | --- | --- | --- | --- | --- | --- | --- | --- | --- | --- | --- | --- | --- | --- | --- | --- | --- | --- |
| COc1ccc(C(=O)CBr)cc1Br [Compound 1, 2,3'-dibromo-4'-methoxyacetophenone] | 31 | 73 | 25 | 81 | 38 | 93 | 0 | 97 | 10 | 92 | 18 | 99.8 | 96 | 100 | 99 | 97.8 | good bactericides | 4 (≈ 13 µM) | 2 (≈ 6.49 µM) | 6 | killing at 1 ppm (Pseudomonas aeruginosa; [3]): 85%; killing at 2 ppm (Pseudomonas aeruginosa; [2]): 7%; killing at 2 ppm (Pseudomonas aeruginosa; [3]): 75%; killing at 4 ppm (Pseudomonas aeruginosa; [2]): 43%; killing at 4 ppm (Pseudomonas aeruginosa; [3]): 89%; killing at 8 ppm (Pseudomonas aeruginosa; [2]): 67%; killing at 8 ppm (Pseudomonas aeruginosa; [3]): 70%; killing at 10 ppm (Pseudomonas aeruginosa; [2]): 93%; killing at 10 ppm (Pseudomonas aeruginosa; [3]): 79%; killing at 15 ppm (Pseudomonas aeruginosa; [2]): 94%; killing at 15 ppm (Pseudomonas aeruginosa; [3]): 94%; killing at 20 ppm (Pseudomonas aeruginosa; [2]): 98%; killing at 20 ppm (Pseudomonas aeruginosa; [3]): 89%; killing at 25 ppm (Pseudomonas aeruginosa; [2]): 97%; killing at 25 ppm (Pseudomonas aeruginosa; [3]): 99%; growth of Desulfovibrio desulfuricans ([1]; 4 ppm): 0; growth of Desulfovibrio desulfuricans ([1]; 10 ppm): 0; growth of Desulfovibrio desulfuricans ([1]; 15 ppm): 0; growth of Desulfovibrio desulfuricans ([1]; 20 ppm): 0 |
| COc1ccc(C(=O)C(Br)Br)cc1Br [Compound 2, 2,2,3'-tribromo-4'-methoxyacetophenone] | 12 | 9 | 22 | 43 | 41 | 83 | 35 | 91 | 39 | 89 | 52 | 96 | 45 | 98 | 51 | 99 | good bactericides | 8 (≈ 20.7 µM) | 4 (≈ 10.3 µM) | 15 | killing at 1 ppm (Pseudomonas aeruginosa; [3]): 0%; killing at 2 ppm (Pseudomonas aeruginosa; [2]): 0%; killing at 2 ppm (Pseudomonas aeruginosa; [3]): 54%; killing at 4 ppm (Pseudomonas aeruginosa; [2]): 36%; killing at 4 ppm (Pseudomonas aeruginosa; [3]): 25%; killing at 8 ppm (Pseudomonas aeruginosa; [2]): 17%; killing at 8 ppm (Pseudomonas aeruginosa; [3]): 71%; killing at 10 ppm (Pseudomonas aeruginosa; [2]): 80%; killing at 10 ppm (Pseudomonas aeruginosa; [3]): 86%; killing at 15 ppm (Pseudomonas aeruginosa; [2]): 97%; killing at 15 ppm (Pseudomonas aeruginosa; [3]): 94%; killing at 20 ppm (Pseudomonas aeruginosa; [2]): 98%; killing at 20 ppm (Pseudomonas aeruginosa; [3]): 99%; killing at 25 ppm (Pseudomonas aeruginosa; [2]): 97%; killing at 25 ppm (Pseudomonas aeruginosa; [3]): 99%; growth of Desulfovibrio desulfuricans ([1]; 4 ppm): 0; growth of Desulfovibrio desulfuricans ([1]; 8 ppm): 0; growth of Desulfovibrio desulfuricans ([1]; 10 ppm): 0; growth of Desulfovibrio desulfuricans ([1]; 15 ppm): 0; growth of Desulfovibrio desulfuricans ([1]; 20 ppm): 0 |
